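Test compounds were applied to cells in 96-well plates for 48 hours at 5 doses. Abbreviation: GI50, concentration required for 50% inhibition of growth. The concentration for full growth arrest is given as TGI.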
How the values were obtained:
Assay in all cases: NCI-60 cell line screen, 48 h
[1] = tested on: IGROV1 ovarian
[2] = tested on: RXF 393 renal
[3] = tested on: SK-OV-3 ovarian
[4] = tested on: SR leukemia
[5] = tested on: NCI-H226 lung
[6] = tested on: HCT-15 colon
[7] = tested on: 786-0 renal
[8] = tested on: CAKI-1 renal
[9] = tested on: NCI-H23 lung

Row | Compound | GI50 [1] [µM] | TGI [1] [µM] | GI50 [2] [µM] | TGI [2] [µM] | GI50 [3] [µM] | TGI [3] [µM] | GI50 [4] [µM] | TGI [4] [µM] | GI50 [5] [µM] | TGI [5] [µM] | GI50 [6] [µM] | TGI [6] [µM] | GI50 [7] [µM] | TGI [7] [µM] | GI50 [8] [µM] | TGI [8] [µM] | GI50 [9] [µM] | TGI [9] [µM]
1 | C(=N\Nc1nnn(Cc2ccccc2)n1)/c1ccccc1 | 7.05 | > 100 | 2.58 | 20.2 | 3.29 | 34.7 | 0.301 | 2.21 | 10.4 | > 100 | 1.42 | > 100 | 8.54 | > 100 | 2.57 | > 100 | 6.97 | > 53.8
2 | CN(C)C(=O)O[C@H]1CN[C@H](C#Cc2cc3ncnc(Nc4ccc(OCc5cccc(F)c5)c(Cl)c4)c3s2)C1 | 4.61 | > 25 | 5.48 | > 25 | 0.102 | > 25 | 5.86 | > 25 | 5.49 | 19.2 | 14.2 | > 25 | 5.8 | 15 | 4.06 | > 25 | > 25 | > 25
3 | CSc1nnc(COc2ccc(Cl)cc2)o1 |  | > 100 |  | > 100 |  | > 100 |  |  |  |  |  | > 100 |  | > 100 |  | > 100 |  | > 100
4 | CCOC(=O)/C(C#N)=C\C=C(/Cl)c1ccc(Cl)cc1 | 5.78 | 27.1 | 21.6 | 45.9 | > 46.8 | > 85.4 | 4.78 | > 100 | 27.4 | 83.2 | 15.1 | 33.6 | 19.4 | 37.4 | 5.74 | 22.5 | 12.2 | 26.9
5 | C=C1C(=O)O[C@H]2[C@H]1CC/C(COC(=O)NCC(C)c1ccc(CC(C)C)cc1)=C\CC[C@@]1(C)O[C@@H]21 (stereo partly drawn) | 0.551 | 1.18 | 0.559 | 1.17 | 5.94 | 11 | 0.678 | 3.6 | 1.05 | 4.59 | 0.595 | 1.27 | 0.582 | 1.1 | 2.32 | 6.68 | 3.69 | 8.69
6 | CCOC(=O)C(NC(=O)c1nc[nH]c1[N+](=O)[O-])C(C)C (stereo not drawn) |  | > 100 |  |  |  | > 100 |  | > 100 |  | > 100 |  | > 100 |  | > 100 |  | > 100 |  | > 100
7 | O=S(=O)(NCCCNc1nccc(-c2c(-c3ccc(F)cc3)nc3sccn23)n1)c1ccc2ccccc2c1 | 5.37 | > 100 | 5.21 | > 100 | > 100 | > 100 | 4.01 | > 100 | 5.77 | > 100 | 3.26 | > 100 | 6.19 | > 100 | 5.47 | > 100 | 15.1 | > 100
8 | O=C1OCC2=C1C(c1ccccc1)c1cc3c(cc1N2CCO)OCO3 (stereo not drawn) | 2.91 | > 50 | 8.03 | 35.7 | 8.28 | > 50 | 3.49 | > 50 | > 50 | > 50 | 2.96 | > 50 | 3.54 | > 50 | 3.87 | > 50 | 7.88 | > 50

From PubChem BioAssay (NCI)
